How the values were obtained:
[1] = system: U251 neuroglioma transplanted tumors; experiment: U251 tumor subcutaneously implanted in nude mice, intratumoral peptide injection; format: in vivo; conditions: 25 μg/tumor every other day, 5-6 medications, vs control polypeptide of shuffled sequence
Procedure: In one aspect, the anti-tumor ability of the 45aa-uORF coded micropeptide is verified in vivo by animal experiments in the present invention. Mice are subcutaneously inoculated with 2 million U251 neuroglioma cells. Thirty days later, transplanted tumors are treated with the chemically synthesized 45aa-uORF coded micropeptide (25 ug/tumor) every other day.
U251 cells were inoculated to the left and right sides of nude mice by 2 million at each point. Thirty days later, the formation of tumors was observed, and the tumors were averagely divided into a control group and an experimental group by size (five nude mice and ten tumors in each group). The control group was injected with a control polypeptide every other day, and the experimental group was injected with the 45aa-uORF polypeptide every other day. Each tumor was injected with 25 μg synthetic peptide. The long diameters and short diameters of the tumors were measured before the medication, and after 5-6 times medications, the nude mice were sacrificed, and tumors were taken out, photographed and weighed. Tumor volume=½*long diameter*the square of short diameter

U251 neuroglioma cells = experiment: Lentiviral overexpression of 45aa-uORF in U251 cells: cell cycle, CCK-8 growth curve, clone formation assay, soft agar; format: cell-based; conditions: stably overexpressed via lentivirus vector vs U251-GFP control cells
Procedure: A vector for overexpressed 45aa-uORF-GFP (the skeleton of the vector is pCDH-CMV-MCS-EF1-Puro) was constructed and then used to transfect into HEK-293T cells together with lentivirus skeleton vectors PSPAX2, PMD2G in a ratio of 1:3:1 to package the lentivirus. The medium supernatants with the lentivirus were collected at 48 hours and 72 hours, respectively, and then used to infect U251 cells (added with 8 μg/ml polybrene to improve the infection efficiency). Puromycin ([…]) was employed for screening and removed three days later, and then the cells were proliferated normally. […]
1.5 Million U251 glioma cells of lentivirus overexpressed 45aa-uORF were inoculated into a T25 culture flask. […] Then, after being centrifuged and washed with PBS once, the precipitate was resuspended in 25 μg/mL Propidium Iodide (PI, sigma)/PBS solution, stained for 30 minutes away from light, and then detected on cell-cycle distribution thereof.
U251-GFP control cells or U251-45aa-uORF-GFP cells were inoculated into a 96-well plate in a quantity of 2000 cells per well. […] After cell adherence to the wall, the CCK-8 (Dojindo, CK04) reagent was added by 10 μL per well every 24 hours for culture at 37° C. for 1-4 hours, and then the absorbance (OD) of […] was detected. The absorbance value was directly proportional to the number of cells. […]

U251 cells [2] = experiment: Ability of FITC-labelled micropeptide to enter cells (fluorescence microscopy); format: cell-based; conditions: FITC-attached micropeptide, 20 μM, 4 hours
Procedure: U251 cells were inoculated onto a glass slide at the density of 50%, and different concentrations of PTEN-45aa micropeptide t attached with FITC fluorescent groups (the micropeptide was dissolved in DMSO with a concentration being 20 μg/μL) were added to treat cells for 4 hours, then fixed with Faure Marin, and observed and photographed under a fluorescence microscope.

U251 cells [3] = experiment: Cell viability with CCK-8 after adding chemically synthesized polypeptide; format: cell-based; conditions: 25 μM, washed out after 4 hours, culture for 72 hours
[4] = listed as 45aa-uORF coded polypeptide

MRDGGGRGPEPLSAPVSSRGGSALGEPAGLRRRQRRRFSPPLRLF (listed as Homo sapiens) [PTEN-45aa, oligopeptide of 45 amino acids coded by the 45aa-uORF in the 5′UTR of human PTEN gene]
growth and formation of U251 transplanted tumors [1]: significantly suppress the growth and formation of the tumors
growth and proliferation of U251 glioma cells (U251 neuroglioma cells): significantly suppress the growth and proliferation
clone formation of U251 neuroglioma cells (CFA, soft agar) (U251 neuroglioma cells; two weeks): significantly suppress the growth, proliferation and clone formation
ability of the micropeptide to enter cells (U251 cells [2]; [4]): can enter U251 cells
ability of the micropeptide to enter cells (U251 cells [2]; listed as PTEN-45aa micropeptide): could enter the U251 cells smoothly
growth and proliferation of glioma cells (cell viability, CCK-8) (U251 cells [3]; listed as 45aa-uORF coded micropeptide): significantly suppress the growth and proliferation
growth and proliferation of glioma cells (cell viability, CCK-8) (U251 cells [3]; [4]): significantly suppress the growth of glioma cells

Reference: patent US12220446B2, “Use of upstream open reading frame 45aa-uORF nucleotide sequence of PTEN gene and polypeptide coded by 45aa-uORF” (THE FIRST AFFILIATED HOSPITAL, SUN YAT-SEN UNIVERSITY, priority 2017, dated 2025)
